Data: article PMC8854719, “Phase 1A/1B dose-escalation and -expansion study to evaluate the safety, pharmacokinetics, food effects and antitumor activity of pamiparib in advanced solid tumours” (British Journal of Cancer, 2021)

Tested on: advanced solid tumours
Assay: Tumour response and PFS per RECIST v1.1, overall efficacy-evaluable population
Type: in vivo, human
Description: Pamiparib in plasma was measured using a validated liquid chromatography-tandem–mass spectrometry assay with a lower limit of quantification of 1.0 ng/mL. The collection schedule for blood samples used to assess the PK profile is presented in the Supplemental Appendix. Summary PK parameters, including area under the concentration-time curve from time 0 to 9 h (AUC0-9) or infinity (AUC0-inf), maximal plasma concentration (Cmax) and time to maximal plasma concentration (Tmax), were estimated. The pharmacodynamic (PD) activity of pamiparib was explored through the evaluation of poly(ADP-ribose [PAR]) formation in peripheral blood mononuclear cells (PBMCs) after pamiparib administration. The schedule for blood sample collection (PK and PBMCs) and additional assessment information for PAR levels in PBMCs and pharmacodynamic activity is presented in the Supplemental Appendix. Antitumor activity was assessed by radiographic imaging (computed tomography or magnetic resonance imaging) during screening, within 28 days of first pamiparib dose, every 6 weeks in the first 12 months and every 9 weeks thereafter.
Tumour response was evaluated by RECIST v1.1. For patients with ovarian cancer, tumour response was assessed per RECIST v1.1 and by Gynecologic Cancer Intergroup (GCIG) CA-125 criteria. Tumour response for patients with prostate cancer was assessed by Prostate Cancer Clinical Trials Working Group 2 (PCWG2) criteria. Objective response rate (ORR) was defined as the proportion of patients achieving a confirmed complete response (CR) or partial response (PR) on study treatment. Blood tumour antigens (e.g., carcinoembryonic antigen for colorectal cancer, CA-125 for ovarian cancer and prostate-specific antigen [PSA] for mCRPC) were assessed during screening, every 6 weeks after the first pamiparib dose in the first 12 months, and every 9 weeks thereafter.
The safety population comprised all patients in the dose-escalation and dose-expansion phases who received at least one dose of pamiparib (Supplementary Table S2). Patients in the safety analysis set for whom valid pamiparib PK parameters were estimated and for whom evaluable PD results were available represented the PK population and the PD population, respectively. The efficacy-evaluable population included patients in the safety analysis set who had at least one evaluable postbaseline tumour assessment or those who discontinued due to clinical disease progression or early death before tumour assessment could be performed. The EOC efficacy-evaluable population was a subset of the overall efficacy-evaluable population that included patients with EOC from both the dose-escalation and dose-expansion phases. Patients in the dose-expansion phase without measurable disease at baseline per RECIST v1.1 were excluded from the efficacy-evaluable population.
Descriptive statistics were used to summarise all study data (see Supplemental Appendix). Progression-free survival (PFS) and event-free rates were estimated using the Kaplan–Meier method along with the corresponding 95% CI. Pharmacokinetic parameters were derived using standard non-compartmental methods with Phoenix WinNonlin Version 6.4 or higher (Pharsight Corp., Mountain View, California).

[1] = BID efficacy-evaluable population (n = 77)
[2] = Total BID dosage group, overall efficacy-evaluable (n = 77)
[3] = dose escalation, 2.5 mg BID (n=4)
[4] = dose escalation, 5.0 mg BID (n=3)
[5] = dose escalation, 10 mg BID (n=3)
[6] = dose escalation, 20 mg BID (n=3)
[7] = dose escalation, 40 mg BID (n=6)
[8] = dose escalation, 60 mg BID (n=11)
[9] = dose escalation, 80 mg BID (n=9)
[10] = dose escalation, 120 mg BID (n=5)
[11] = dose escalation, Total BID (N=44)
[12] = overall efficacy-evaluable population (n=95)

C[C@]12CCCN1CC1=NNC(=O)c3cc(F)cc4[nH]c2c1c34 [pamiparib]
Median duration of response (BID dosage group): 14.9 months
Confirmed CRs [1]: 5.2%
Confirmed PRs [1]: 22.1%
Confirmed CRs (in words) (QD dosage group (n=18)): no confirmed CRs
Confirmed ORR (QD dosage group (n=18)): 11.1%
Confirmed PRs (QD dosage group (n=18)): 11.1%
Event-free rate, 1 year (Total (N=95)): 32.7 (21.73-44.18) % (95% CI)
Event-free rate, 2 years (Total (N=95)): 11.0 (4.13-21.80) % (95% CI)
PFS censored: New anticancer therapy received before event (Total (N=95)): 1 (1.1) n (%)
PFS censored: No disease progression or death (Total (N=95)): 27 (28.4) n (%)
PFS censored: No postbaseline assessment (Total (N=95)): 5 (5.3) n (%)
PFS censored: ≥2 consecutive missed assessments (Total (N=95)): 2 (2.1) n (%)
PFS events: Death (Total (N=95)): 10 (10.5) n (%)
PFS events: Disease progression (Total (N=95)): 50 (52.6) n (%)
PFS: Censored (Total (N=95)): 35 (36.8) n (%)
PFS: Events (Total (N=95)): 60 (63.2) n (%)
Progression-Free Survival, Median (Total (N=95)): 5.5 (4.14-8.31) months (95% CI)
Event-free rate, 1 year (Total BID Dosage Group (n=77)): 34.0 (21.72-46.58) % (95% CI)
Event-free rate, 2 years (Total BID Dosage Group (n=77)): 12.2 (4.52-24.01) % (95% CI)
PFS censored: New anticancer therapy received before event (Total BID Dosage Group (n=77)): 1 (1.3) n (%)
PFS censored: No disease progression or death (Total BID Dosage Group (n=77)): 20 (26.0) n (%)
PFS censored: No postbaseline assessment (Total BID Dosage Group (n=77)): 5 (6.5) n (%)
PFS censored: ≥2 consecutive missed assessments (Total BID Dosage Group (n=77)): 2 (2.6) n (%)
PFS events: Death (Total BID Dosage Group (n=77)): 7 (9.1) n (%)
PFS events: Disease progression (Total BID Dosage Group (n=77)): 42 (54.5) n (%)
PFS: Censored (Total BID Dosage Group (n=77)): 28 (36.4) n (%)
PFS: Events (Total BID Dosage Group (n=77)): 49 (63.6) n (%)
Progression-Free Survival, Median (Total BID Dosage Group (n=77)): 6.9 (4.14-9.89) months (95% CI)
Best overall response: Complete response [2]: 4 (5.2) n (%)
Best overall response: Not assessed [2]: 7 (9.1) n (%)
Best overall response: Not evaluable [2]: 1 (1.3) n (%)
Best overall response: Partial response [2]: 17 (22.1) n (%)
Best overall response: Progressive disease [2]: 11 (14.3) n (%)
Best overall response: Stable disease [2]: 37 (48.1) n (%)
Clinical benefit rate [2]: 39.0 (28.1–50.8) % (95% CI)
Disease control rate [2]: 75.3 (64.2–84.4) % (95% CI)
Objective response rate [2]: 27.3 (17.7–38.6) % (95% CI)
Event-free rate, 1 year (Total QD Dosage Group (n=18)): 30.1 (8.73-55.34) % (95% CI)
Event-free rate, 2 years (Total QD Dosage Group (n=18)): 0.0 (NE-NE) % (95% CI)
PFS censored: New anticancer therapy received before event (Total QD Dosage Group (n=18)): 0 (0) n (%)
PFS censored: No disease progression or death (Total QD Dosage Group (n=18)): 7 (38.9) n (%)
PFS censored: No postbaseline assessment (Total QD Dosage Group (n=18)): 0 (0) n (%)
PFS censored: ≥2 consecutive missed assessments (Total QD Dosage Group (n=18)): 0 (0) n (%)
PFS events: Death (Total QD Dosage Group (n=18)): 3 (16.7) n (%)
PFS events: Disease progression (Total QD Dosage Group (n=18)): 8 (44.4) n (%)
PFS: Censored (Total QD Dosage Group (n=18)): 7 (38.9) n (%)
PFS: Events (Total QD Dosage Group (n=18)): 11 (61.1) n (%)
Progression-Free Survival, Median (Total QD Dosage Group (n=18)): 4.9 (3.22-12.32) months (95% CI)
Best overall response: Complete response [3]: 0 (0.0) n (%)
Best overall response: Not assessed [3]: 2 (50.0) n (%)
Best overall response: Not evaluable [3]: 0 (0.0) n (%)
Best overall response: Partial response [3]: 1 (25.0) n (%)
Best overall response: Progressive disease [3]: 1 (25.0) n (%)
Best overall response: Stable disease [3]: 0 (0.0) n (%)
Clinical benefit rate [3]: 25.0 (0.63-80.59) % (95% CI)
Disease control rate [3]: 25.0 (0.63-80.59) % (95% CI)
Objective response rate [3]: 25.0 (0.63-80.59) % (95% CI)
Best overall response: Complete response [4]: 0 (0.0) n (%)
Best overall response: Not assessed [4]: 1 (33.3) n (%)
Best overall response: Not evaluable [4]: 0 (0.0) n (%)
Best overall response: Partial response [4]: 1 (33.3) n (%)
Best overall response: Progressive disease [4]: 0 (0.0) n (%)
Best overall response: Stable disease [4]: 1 (33.3) n (%)
Clinical benefit rate [4]: 33.3 (0.84-90.57) % (95% CI)
Objective response rate [4]: 33.3 (0.84-90.57) % (95% CI)
Best overall response: Complete response [5]: 0 (0.0) n (%)
Best overall response: Not assessed [5]: 0 (0.0) n (%)
Best overall response: Not evaluable [5]: 0 (0.0) n (%)
Best overall response: Partial response [5]: 0 (0.0) n (%)
Best overall response: Progressive disease [5]: 1 (33.3) n (%)
Best overall response: Stable disease [5]: 2 (66.7) n (%)
Clinical benefit rate [5]: 0.0 (0.00-70.76) % (95% CI)
Disease control rate [5]: 66.7 (9.43-99.16) % (95% CI)
Objective response rate [5]: 0.0 (0.00-70.76) % (95% CI)
Best overall response: Complete response [6]: 1 (33.3) n (%)
Best overall response: Not assessed [6]: 0 (0.0) n (%)
Best overall response: Not evaluable [6]: 0 (0.0) n (%)
Best overall response: Partial response [6]: 1 (33.3) n (%)
Best overall response: Progressive disease [6]: 1 (33.3) n (%)
Best overall response: Stable disease [6]: 0 (0.0) n (%)
Clinical benefit rate [6]: 66.7 (9.43-99.16) % (95% CI)
Disease control rate [6]: 66.7 (9.43-99.16) % (95% CI)
Objective response rate [6]: 66.7 (9.43-99.16) % (95% CI)
Best overall response: Complete response [7]: 0 (0.0) n (%)
Best overall response: Not assessed [7]: 0 (0.0) n (%)
Best overall response: Not evaluable [7]: 0 (0.0) n (%)
Best overall response: Partial response [7]: 2 (33.3) n (%)
Best overall response: Progressive disease [7]: 0 (0.0) n (%)
Best overall response: Stable disease [7]: 4 (66.7) n (%)
Clinical benefit rate [7]: 33.3 (4.33-77.72) % (95% CI)
Disease control rate [7]: 100.0 (54.07-100.00) % (95% CI)
Objective response rate [7]: 33.3 (4.33-77.72) % (95% CI)
Best overall response: Complete response [8]: 1 (9.1) n (%)
Best overall response: Not assessed [8]: 2 (18.2) n (%)
Best overall response: Not evaluable [8]: 0 (0.0) n (%)
Best overall response: Partial response [8]: 0 (0.0) n (%)
Best overall response: Progressive disease [8]: 3 (27.3) n (%)
Best overall response: Stable disease [8]: 5 (45.5) n (%)
Clinical benefit rate [8]: 18.2 (2.28-51.78) % (95% CI)
Disease control rate [8]: 54.5 (23.38-83.25) % (95% CI)
Objective response rate [8]: 9.1 (0.23-41.28) % (95% CI)
Best overall response: Complete response [9]: 1 (11.1) n (%)
Best overall response: Not assessed [9]: 1 (11.1) n (%)
Best overall response: Not evaluable [9]: 0 (0.0) n (%)
Best overall response: Partial response [9]: 1 (11.1) n (%)
Best overall response: Progressive disease [9]: 1 (11.1) n (%)
Best overall response: Stable disease [9]: 5 (55.6) n (%)
Clinical benefit rate [9]: 44.4 (13.70-78.80) % (95% CI)
Disease control rate [9]: 77.8 (39.99-97.19) % (95% CI)
Objective response rate [9]: 22.2 (2.81-60.01) % (95% CI)
Best overall response: Complete response [10]: 0 (0.0) n (%)
Best overall response: Not assessed [10]: 1 (20.0) n (%)
Best overall response: Not evaluable [10]: 1 (20.0) n (%)
Best overall response: Partial response [10]: 1 (20.0) n (%)
Best overall response: Progressive disease [10]: 1 (20.0) n (%)
Best overall response: Stable disease [10]: 1 (20.0) n (%)
Clinical benefit rate [10]: 20.0 (0.51-71.64) % (95% CI)
Disease control rate [10]: 40.0 (5.27-85.34) % (95% CI)
Objective response rate [10]: 20.0 (0.51-71.64) % (95% CI)
Best overall response: Complete response [11]: 3 (6.8) n (%)
Best overall response: Not assessed [11]: 7 (15.9) n (%)
Best overall response: Not evaluable [11]: 1 (2.3) n (%)
Best overall response: Partial response [11]: 7 (15.9) n (%)
Best overall response: Progressive disease [11]: 8 (18.2) n (%)
Best overall response: Stable disease [11]: 18 (40.9) n (%)
Clinical benefit rate [11]: 29.5 (16.76-45.20) % (95% CI)
Disease control rate [11]: 63.6 (47.77-77.59) % (95% CI)
Objective response rate [11]: 22.7 (11.47-37.84) % (95% CI)
Patients who died (efficacy-evaluable patients (N 95), n = 10): 10.5%
Patients who progressed (efficacy-evaluable patients (N 95), n = 50): 52.6%
Patients who died or progressed (efficacy-evaluable patients, 60/95): 63.2%
Confirmed complete responses [12]: 4.2%
Confirmed partial responses [12]: 20%
Confirmed ORR (overall efficacy-evaluable population (n=95), BID and QD): 24.2%
